# Experimental data: patent US6455761B1, “Agrobacterium-mediated transformation of turnip rape” (Helsinki University Licensing Ltd. Oy, priority 1997, dated 2002)
# How the values were obtained:
# [1] = test system: inflorescence stem segments of turnip rape plants; test: Effect of cultivation factors on transformation of inflorescence stem segments by Agrobacterium LBA4404pGPTV-KAN-GUSint (histological GUS assay); assay type: cell-based, Brassica rapa ssp. oleifera; conditions: for Average %: average of cultivars
# explants of turnip rape = test system: explants of turnip rape
# Protocol: (§1) Selection and regeneration. […] Thereafter the whole explants or cut callus pieces with the green nodules and primordia were transferred on hormone free MS medium, where nodules developed primordia and shoots. Silver nitrate in concentration 0-90 μM (0-15 mg/l) and porous paper tape for sealing of Petri dishes were used in transformation and regeneration of transgenic plants.
# Shoot regeneration. Effects of different hormones on various explants of mature plants of turnip rape were tested in preliminary experiments to achieve sufficient shoot regeneration.
# Silver nitrate application and aeration. The use of silver nitrate in in vitro cultivation of turnip rape has often been reported as an essential factor for shoot regeneration (Chi et al. 1990; Hachey et al. 1991; Mukhopadhuay et al. 1992; Radke et al. 1992). […] We have examined the effect of silver nitrate on regeneration capacity of explants of turnip rape.
# Selection. To prevent Agrobacterium growth on the medium we used claforan (cefotaxim) 500 mg/l or carbenicillin 200 mg/l.
# Agrobacterium = conditions: 5 mg/l (30 μM); MS medium during co-cultivation with plant explants
# Source text: We have transformed inflorescence stem segments of turnip rape using different concentrations of silver nitrate and sealed plates with plant explants by parafilm or porous paper tape. Transformation efficiency was examined in histological GUS assay 4 days after co-cultivation. Transformation efficiency is shown in Table 4 as proportion of explants with blue inclusions in the calli per all explants (also in %).
# [2] = test system: turnip rape plants cv. Valtti and Sisu; test: Transgenic shoot regeneration under antibiotic selection
# Protocol: as §1
# Selection on kanamycin or hygromycin was applied immediately after co-cultivation of the explants with Agrobacteria, three days after beginning of the whole procedure. Antibiotics were used in concentrations 20-25 mg/l during all steps of regeneration and cultivation of transgenic plants.
# Using nptII and hpt genes in transformation constructions provides the plants resistance to kanamycin and hygromycin, respectively. […] Because morfogenesis occurs mainly on the basal side of the stem segmets, explants are placed basal side down on the selection medium.
# Turnip rape plants cv. Valtti and Sisu were transformed with LBA4404 pGPTV-KAN-GUSint and LBA4404 pGPTV-HPT-GUSint.
# Analysis of transformation. Green regenerated shoots were checked for GUS activity. Leaves or leaf pieces were prepared for histological GUS assay as described above.
# [3] = 100 μM AS added in MS medium during inoculation and cocultivation, cv. Sisu
# [4] = 100 μM AS added in MS medium during inoculation and cocultivation, cv. Valtti
# [5] = 100 μM AS in MS medium and Agrobacterium grown one night with 100 μM acetosyringone, cv. Sisu
# [6] = 100 μM AS in MS medium and Agrobacterium grown one night with 100 μM acetosyringone, cv. Valtti
# [7] = selection on 20 mg/l, cultivars Sisu and Valtti
compound,measurement,setting,value
"COc1cc(C(C)=O)cc(OC)c1O [AS, 3,5-dimethoxy-4-hydroxyacetophenon]",Average %,[1]; 100 μM AS added in MS medium during inoculation and cocultivation,41.6%
same,GUS +/all,[1]; [3],24/65
same,GUS +/all %,[1]; [3],36.9%
same,GUS +/all,[1]; [4],36/78
same,GUS +/all %,[1]; [4],46.2%
same,Average %,[1]; 100 μM AS in MS medium and Agrobacterium grown one night with 100 μM acetosyringone,46.6%
same,GUS +/all,[1]; [5],29/65
same,GUS +/all %,[1]; [5],44.6%
same,GUS +/all,[1]; [6],35/72
same,GUS +/all %,[1]; [6],48.6%
"O=[N+]([O-])[O-].[Ag+] [AgNO3, silver nitrate]",Average %,[1]; 5 mg/l AgNO3,29.5%
same,GUS +/all %,"[1]; 5 mg/l AgNO3, cv. Sisu",27.1%
same,GUS +/all,"[1]; 5 mg/l AgNO3, cv. Sisu, 4 days after co-cultivation",19/70
same,GUS +/all,"[1]; 5 mg/l AgNO3, cv. Valtti",14/37
same,GUS +/all %,"[1]; 5 mg/l AgNO3, cv. Valtti",37.8%
same,Average %,[1]; 10 mg/l AgNO3,37.6%
same,GUS +/all,"[1]; 10 mg/l AgNO3, cv. Sisu",15/53
same,GUS +/all %,"[1]; 10 mg/l AgNO3, cv. Sisu",28.3%
same,GUS +/all,"[1]; 10 mg/l AgNO3, cv. Valtti",15/32
same,GUS +/all %,"[1]; 10 mg/l AgNO3, cv. Valtti",46.9%
same,Average %,[1]; 15 mg/l AgNO3,37.6%
same,GUS +/all,"[1]; 15 mg/l AgNO3, cv. Sisu",17/40
same,GUS +/all %,"[1]; 15 mg/l AgNO3, cv. Sisu",42.5%
same,GUS +/all,"[1]; 15 mg/l AgNO3, cv. Valtti",14/43
same,GUS +/all %,"[1]; 15 mg/l AgNO3, cv. Valtti",32.6%
same,effect on transformation,[1]; silver nitrate in the cultivation medium,does not have a negative effect on transformation
same,Shoot regeneration optimum concentration,explants of turnip rape,5 to 10 mg/L
same,effect of high concentrations on cultivated calli,explants of turnip rape,browning and partial necrosis of cultivated calli
same,effect on Agrobacterium growth,Agrobacterium,suppresses Agrobacterium growth
"CO/N=C(\C(=O)N[C@@H]1C(=O)N2C(C(=O)O)=C(COC(C)=O)CS[C@H]12)c1csc(N)n1 [Claforan, cefotaxim]",recovering of transgenic shoots after inoculation with Agrobacteria,[2]; claforan used to prevent Agrobacterium growth,full block of recovering of transgenic shoots
same,decrease of shoot regeneration frequency compared to carbenicillin,"explants of turnip rape; claforan 500 mg/l vs carbenicillin 200 mg/l, data not shown",2-5 times
"O=C(O)Cc1c[nH]c2ccccc12 [IAA, indole-3-acetic acid]",effect on shoot regeneration relative to BAP and NAA,explants of turnip rape; data not shown,less effective than BAP and NAA
NC[C@H]1O[C@H](O[C@H]2[C@H](O)[C@@H](O[C@H]3O[C@H](CO)[C@@H](O)[C@H](N)[C@H]3O)[C@H](N)C[C@@H]2N)[C@H](O)[C@@H](O)[C@@H]1O [Kanamycin],escape proportion,[2]; selection of transgenic shoots,80-90%
same,Escapes per green shoots,[2]; [7],52/59
same,Escapes per green shoots %,[2]; [7],88%
same,GUS positive per all explants,[2]; [7],7/182
same,GUS positive per all explants %,[2]; [7],4%
same,Green shoots per all explants,[2]; [7],59/182
same,Green shoots per all explants %,[2]; [7],32%
CC1(C)S[C@@H]2[C@H](NC(=O)C(C(=O)O)c3ccccc3)C(=O)N2[C@H]1C(=O)O (some centres unmarked) [carbenicillin],effect on regeneration,"explants of turnip rape; 200 mg/l, data not shown",does not have an apparent negative effect on regeneration
c1coc(CNc2ncnc3[nH]cnc23)c1 [kinetin],effect on shoot regeneration relative to BAP and NAA,explants of turnip rape; data not shown,less effective than BAP and NAA
